{"source": "the supplement of paper PMC4932681", "assay_in_all_cases": "viability inhibition at highest dose (% inhibition); higher = more growth inhibition", "key": {"MCF-7": {"test_system": "MCF-7", "conditions": "72 h", "experimental": "(§1)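 Percent inhibition of viability (CellTiter-Glo, 72 h) at the highest tested concentration (D5), normalised to DMSO (0%) and 100 µM benzethonium chloride (100%). Resistant lines and the 'in 1µM tamoxifen' arms were tested in 1 µM 4-OH-tamoxifen.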"}, "T-47D": {"test_system": "T-47D", "conditions": "72 h", "experimental": "as §1"}, "BT-474 Tam1": {"test_system": "BT-474 Tam1", "conditions": "4-OH-tamoxifen in medium 1 µM; 72 h", "experimental": "as §1"}, "ZR-75-1 Tam2": {"test_system": "ZR-75-1 Tam2", "conditions": "4-OH-tamoxifen in medium 1 µM; 72 h", "experimental": "as §1"}, "BT-474 Tam2": {"test_system": "BT-474 Tam2", "conditions": "4-OH-tamoxifen in medium 1 µM; 72 h", "experimental": "as §1"}, "ZR-75-1": {"test_system": "ZR-75-1", "conditions": "72 h", "experimental": "as §1"}, "T-47D Tam2": {"test_system": "T-47D Tam2", "conditions": "4-OH-tamoxifen in medium 1 µM; 72 h", "experimental": "as §1"}, "T-47D Tam1": {"test_system": "T-47D Tam1", "conditions": "4-OH-tamoxifen in medium 1 µM; 72 h", "experimental": "as §1"}, "ZR-75-1 Tam1": {"test_system": "ZR-75-1 Tam1", "conditions": "4-OH-tamoxifen in medium 1 µM; 72 h", "experimental": "as §1"}, "MCF-7 Tam1": {"test_system": "MCF-7 Tam1", "conditions": "4-OH-tamoxifen in medium 1 µM; 72 h", "experimental": "as §1"}, "BT-474": {"test_system": "BT-474", "conditions": "72 h", "experimental": "as §1"}}, "data": [{"molecule": "CN(C)CCN1C(=O)c2cccc3cc(N)cc(c23)C1=O", "note": "[Amonafide] (drug 10000 nM)", "values": [{"measurement": "viability inhibition at highest dose", "setting": "MCF-7; 4-OH-tamoxifen in medium 0 µM", "value": 51.1}, {"measurement": "viability inhibition at highest dose", "setting": "MCF-7; 4-OH-tamoxifen in medium 1 µM", "value": 20.4}, {"measurement": "viability inhibition at highest dose", "setting": "T-47D; 4-OH-tamoxifen in medium 0 µM", "value": 23.6}, {"measurement": "viability inhibition at highest dose", "setting": "T-47D; 4-OH-tamoxifen in medium 1 µM", "value": -12}, {"measurement": "viability inhibition at highest dose", "setting": "BT-474 Tam1", "value": -18.4}, {"measurement": "viability inhibition at highest dose", "setting": "ZR-75-1 Tam2", "value": 23.1}, {"measurement": "viability inhibition at highest dose", "setting": "BT-474 Tam2", "value": -15.7}, {"measurement": "viability inhibition at highest dose", "setting": "ZR-75-1; 4-OH-tamoxifen in medium 0 µM", "value": 35.4}, {"measurement": "viability inhibition at highest dose", "setting": "ZR-75-1; 4-OH-tamoxifen in medium 1 µM", "value": 17.1}, {"measurement": "viability inhibition at highest dose", "setting": "T-47D Tam2", "value": 11.3}, {"measurement": "viability inhibition at highest dose", "setting": "T-47D Tam1", "value": 5.27}, {"measurement": "viability inhibition at highest dose", "setting": "ZR-75-1 Tam1", "value": 12.9}, {"measurement": "viability inhibition at highest dose", "setting": "MCF-7 Tam1", "value": 7.15}, {"measurement": "viability inhibition at highest dose", "setting": "BT-474; 4-OH-tamoxifen in medium 0 µM", "value": -11.5}, {"measurement": "viability inhibition at highest dose", "setting": "BT-474; 4-OH-tamoxifen in medium 1 µM", "value": -35.2}]}, {"molecule": "CNCc1ccc(-c2[nH]c3cc(F)cc4c3c2CCNC4=O)cc1", "note": "(drug 10000 nM)", "values": [{"measurement": "viability inhibition at highest dose", "setting": "MCF-7; 4-OH-tamoxifen in medium 0 µM", "value": 6.6}, {"measurement": "viability inhibition at highest dose", "setting": "MCF-7; 4-OH-tamoxifen in medium 1 µM", "value": 1.15}, {"measurement": "viability inhibition at highest dose", "setting": "T-47D; 4-OH-tamoxifen in medium 0 µM", "value": -7.27}, {"measurement": "viability inhibition at highest dose", "setting": "T-47D; 4-OH-tamoxifen in medium 1 µM", "value": -9.52}, {"measurement": "viability inhibition at highest dose", "setting": "BT-474 Tam1", "value": 2.87}, {"measurement": "viability inhibition at highest dose", "setting": "ZR-75-1 Tam2", "value": 0.703}, {"measurement": "viability inhibition at highest dose", "setting": "BT-474 Tam2", "value": -16.6}, {"measurement": "viability inhibition at highest dose", "setting": "ZR-75-1; 4-OH-tamoxifen in medium 0 µM", "value": -4.71}, {"measurement": "viability inhibition at highest dose", "setting": "ZR-75-1; 4-OH-tamoxifen in medium 1 µM", "value": -4.07}, {"measurement": "viability inhibition at highest dose", "setting": "T-47D Tam2", "value": 6.84}, {"measurement": "viability inhibition at highest dose", "setting": "T-47D Tam1", "value": 1.19}, {"measurement": "viability inhibition at highest dose", "setting": "ZR-75-1 Tam1", "value": -4.62}, {"measurement": "viability inhibition at highest dose", "setting": "MCF-7 Tam1", "value": -2.56}, {"measurement": "viability inhibition at highest dose", "setting": "BT-474; 4-OH-tamoxifen in medium 0 µM", "value": -3.44}, {"measurement": "viability inhibition at highest dose", "setting": "BT-474; 4-OH-tamoxifen in medium 1 µM", "value": -1.93}]}, {"molecule": "CN1CCN(CCOc2cc(OC3CCOCC3)c3c(Nc4c(Cl)ccc5c4OCO5)ncnc3c2)CC1", "note": "[Saracatinib] (drug 10000 nM)", "values": [{"measurement": "viability inhibition at highest dose", "setting": "MCF-7; 4-OH-tamoxifen in medium 0 µM", "value": 25.2}, {"measurement": "viability inhibition at highest dose", "setting": "MCF-7; 4-OH-tamoxifen in medium 1 µM", "value": 15}, {"measurement": "viability inhibition at highest dose", "setting": "T-47D; 4-OH-tamoxifen in medium 0 µM", "value": 17.5}, {"measurement": "viability inhibition at highest dose", "setting": "T-47D; 4-OH-tamoxifen in medium 1 µM", "value": -7.13}, {"measurement": "viability inhibition at highest dose", "setting": "BT-474 Tam1", "value": 100}, {"measurement": "viability inhibition at highest dose", "setting": "ZR-75-1 Tam2", "value": -17.9}, {"measurement": "viability inhibition at highest dose", "setting": "BT-474 Tam2", "value": 100}, {"measurement": "viability inhibition at highest dose", "setting": "ZR-75-1; 4-OH-tamoxifen in medium 0 µM", "value": -37.6}, {"measurement": "viability inhibition at highest dose", "setting": "ZR-75-1; 4-OH-tamoxifen in medium 1 µM", "value": -19.4}, {"measurement": "viability inhibition at highest dose", "setting": "T-47D Tam2", "value": 27.9}, {"measurement": "viability inhibition at highest dose", "setting": "T-47D Tam1", "value": 36.6}, {"measurement": "viability inhibition at highest dose", "setting": "ZR-75-1 Tam1", "value": -10.5}, {"measurement": "viability inhibition at highest dose", "setting": "MCF-7 Tam1", "value": 4.6}, {"measurement": "viability inhibition at highest dose", "setting": "BT-474; 4-OH-tamoxifen in medium 0 µM", "value": 50.3}, {"measurement": "viability inhibition at highest dose", "setting": "BT-474; 4-OH-tamoxifen in medium 1 µM", "value": 94.4}]}, {"molecule": "Nc1nc(=O)c2c([nH]1)NCC(CNc1ccc(C(=O)N[C@@H](CCC(=O)O)C(=O)O)cc1)N2C=O", "note": "(mixture of isomers) [Folinic acid] (drug 990000 nM)", "values": [{"measurement": "viability inhibition at highest dose", "setting": "MCF-7; 4-OH-tamoxifen in medium 0 µM", "value": 0.626}, {"measurement": "viability inhibition at highest dose", "setting": "MCF-7; 4-OH-tamoxifen in medium 1 µM", "value": 3.23}, {"measurement": "viability inhibition at highest dose", "setting": "T-47D; 4-OH-tamoxifen in medium 0 µM", "value": 3.41}, {"measurement": "viability inhibition at highest dose", "setting": "T-47D; 4-OH-tamoxifen in medium 1 µM", "value": -2.78}, {"measurement": "viability inhibition at highest dose", "setting": "BT-474 Tam1", "value": 3.17}, {"measurement": "viability inhibition at highest dose", "setting": "ZR-75-1 Tam2", "value": 5.23}, {"measurement": "viability inhibition at highest dose", "setting": "BT-474 Tam2", "value": 3.09}, {"measurement": "viability inhibition at highest dose", "setting": "ZR-75-1; 4-OH-tamoxifen in medium 0 µM", "value": 3.64}, {"measurement": "viability inhibition at highest dose", "setting": "ZR-75-1; 4-OH-tamoxifen in medium 1 µM", "value": -3.47}, {"measurement": "viability inhibition at highest dose", "setting": "T-47D Tam2", "value": -14.6}, {"measurement": "viability inhibition at highest dose", "setting": "T-47D Tam1", "value": -0.031}, {"measurement": "viability inhibition at highest dose", "setting": "ZR-75-1 Tam1", "value": 1.59}, {"measurement": "viability inhibition at highest dose", "setting": "MCF-7 Tam1", "value": -1.58}, {"measurement": "viability inhibition at highest dose", "setting": "BT-474; 4-OH-tamoxifen in medium 0 µM", "value": 1.3}, {"measurement": "viability inhibition at highest dose", "setting": "BT-474; 4-OH-tamoxifen in medium 1 µM", "value": -8.34}]}, {"molecule": "O=C1NC(=O)[C@@H](c2cn3c4c(cccc24)CCC3)[C@@H]1c1c[nH]c2ccccc12", "note": "[Tivatinib (ARQ 197)] (drug 1000 nM)", "values": [{"measurement": "viability inhibition at highest dose", "setting": "MCF-7; 4-OH-tamoxifen in medium 0 µM", "value": 27.5}, {"measurement": "viability inhibition at highest dose", "setting": "MCF-7; 4-OH-tamoxifen in medium 1 µM", "value": 18.4}, {"measurement": "viability inhibition at highest dose", "setting": "T-47D; 4-OH-tamoxifen in medium 0 µM", "value": 43.2}, {"measurement": "viability inhibition at highest dose", "setting": "T-47D; 4-OH-tamoxifen in medium 1 µM", "value": 7.95}, {"measurement": "viability inhibition at highest dose", "setting": "BT-474 Tam1", "value": 16.1}, {"measurement": "viability inhibition at highest dose", "setting": "ZR-75-1 Tam2", "value": 8.59}, {"measurement": "viability inhibition at highest dose", "setting": "BT-474 Tam2", "value": 10.4}, {"measurement": "viability inhibition at highest dose", "setting": "ZR-75-1; 4-OH-tamoxifen in medium 0 µM", "value": 19.6}, {"measurement": "viability inhibition at highest dose", "setting": "ZR-75-1; 4-OH-tamoxifen in medium 1 µM", "value": 10.3}, {"measurement": "viability inhibition at highest dose", "setting": "T-47D Tam2", "value": 27.8}, {"measurement": "viability inhibition at highest dose", "setting": "T-47D Tam1", "value": 26.7}, {"measurement": "viability inhibition at highest dose", "setting": "ZR-75-1 Tam1", "value": 5.46}, {"measurement": "viability inhibition at highest dose", "setting": "MCF-7 Tam1", "value": -6.15}, {"measurement": "viability inhibition at highest dose", "setting": "BT-474; 4-OH-tamoxifen in medium 0 µM", "value": 34.3}, {"measurement": "viability inhibition at highest dose", "setting": "BT-474; 4-OH-tamoxifen in medium 1 µM", "value": 43.9}]}, {"molecule": "C/C(=C\\c1csc(C)n1)[C@@H]1C[C@@H]2O[C@]2(C)CCC[C@H](C)[C@H](O)[C@@H](C)C(=O)C(C)(C)[C@@H](O)CC(=O)O1", "note": "[Patupilone  (Epothilone B)] (drug 1000 nM)", "values": [{"measurement": "viability inhibition at highest dose", "setting": "MCF-7; 4-OH-tamoxifen in medium 0 µM", "value": 24.1}, {"measurement": "viability inhibition at highest dose", "setting": "MCF-7; 4-OH-tamoxifen in medium 1 µM", "value": 21.5}, {"measurement": "viability inhibition at highest dose", "setting": "T-47D; 4-OH-tamoxifen in medium 0 µM", "value": 38.1}, {"measurement": "viability inhibition at highest dose", "setting": "T-47D; 4-OH-tamoxifen in medium 1 µM", "value": 8.65}, {"measurement": "viability inhibition at highest dose", "setting": "BT-474 Tam1", "value": 38.2}, {"measurement": "viability inhibition at highest dose", "setting": "ZR-75-1 Tam2", "value": 1.47}, {"measurement": "viability inhibition at highest dose", "setting": "BT-474 Tam2", "value": 28}, {"measurement": "viability inhibition at highest dose", "setting": "ZR-75-1; 4-OH-tamoxifen in medium 0 µM", "value": 8.28}, {"measurement": "viability inhibition at highest dose", "setting": "ZR-75-1; 4-OH-tamoxifen in medium 1 µM", "value": -8.45}, {"measurement": "viability inhibition at highest dose", "setting": "T-47D Tam2", "value": 33.4}, {"measurement": "viability inhibition at highest dose", "setting": "T-47D Tam1", "value": 22}, {"measurement": "viability inhibition at highest dose", "setting": "ZR-75-1 Tam1", "value": 1.36}, {"measurement": "viability inhibition at highest dose", "setting": "MCF-7 Tam1", "value": -9.25}, {"measurement": "viability inhibition at highest dose", "setting": "BT-474; 4-OH-tamoxifen in medium 0 µM", "value": 49.2}, {"measurement": "viability inhibition at highest dose", "setting": "BT-474; 4-OH-tamoxifen in medium 1 µM", "value": 56.4}]}]}
